{"source": "paper PMC12481576", "about": "“Barbituric Acid Derivatives as Covalent Inhibitors of Leishmania braziliensis Dihydroorotate Dehydrogenase” (Journal of Medicinal Chemistry, 2025)", "key": {"LbDHODH": {"molecular_target": "LbDHODH (Leishmania braziliensis, UniProt E9AI53)", "sequence (E9AI53 entry or part of it)": "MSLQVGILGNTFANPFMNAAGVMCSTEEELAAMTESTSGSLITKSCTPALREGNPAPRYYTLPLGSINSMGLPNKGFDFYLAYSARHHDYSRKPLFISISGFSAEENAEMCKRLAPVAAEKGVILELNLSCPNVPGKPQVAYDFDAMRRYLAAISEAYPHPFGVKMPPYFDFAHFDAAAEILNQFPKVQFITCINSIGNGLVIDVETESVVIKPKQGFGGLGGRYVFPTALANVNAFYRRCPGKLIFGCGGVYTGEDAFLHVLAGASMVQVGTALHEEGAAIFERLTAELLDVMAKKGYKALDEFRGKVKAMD", "experiment": "biochemical", "conditions": "for IC50: LbDHODH", "procedure": "To assess the ability of compounds 2a–2i to inhibit LbDHODH via covalent bond formation with Cys^131, we initially screened them at a concentration of 100 μM under two conditions: with and without a 4-h preincubation with the enzyme.\nThe experiments were performed in a 96-well microplate reader (SpectraMax Plus 384, Molecular Devices, USA), containing the […] of the buffer 60 mM DCIP, 50 mM Tris pH 8.15, 150 mM KCl, 0.1% Triton X-100, 50 μM DHO and 10 μM of LbDHODH at 165 nM. The reaction was monitored every 3 s at 610 nm over a period of 60 s, in triplicate, for the control and each concentration of the inhibitor. All assays were performed without incubation (0h) and with 4-h preincubation of the inhibitor with LbDHODH, using 5% DMSO (v/v) as control. […]. […] The resulting kobs values were plotted as a function of inhibitor concentration, and the data in the initial linear region was fit to determine the slope, which is kinact/KI. All regressions were performed with GraphPad Prism 9."}, "HsDHODH": {"molecular_target": "T1, HsDHODH (Homo sapiens, UniProt Q02127)", "T1 construct": "made in house", "T1 sequence (Q02127 whole entry)": "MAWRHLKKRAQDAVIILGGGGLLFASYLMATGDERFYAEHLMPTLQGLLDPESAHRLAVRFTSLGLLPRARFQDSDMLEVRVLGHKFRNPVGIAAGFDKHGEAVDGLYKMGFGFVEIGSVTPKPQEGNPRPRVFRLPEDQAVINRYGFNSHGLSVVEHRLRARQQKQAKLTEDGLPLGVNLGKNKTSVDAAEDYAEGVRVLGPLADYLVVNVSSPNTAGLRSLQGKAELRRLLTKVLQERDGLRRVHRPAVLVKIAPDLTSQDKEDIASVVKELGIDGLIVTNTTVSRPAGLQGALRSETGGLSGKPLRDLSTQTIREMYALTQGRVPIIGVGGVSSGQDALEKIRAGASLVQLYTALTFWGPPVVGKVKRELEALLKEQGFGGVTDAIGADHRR", "experiment": "Selectivity assay: HsDHODH single-dose inhibition (DCIP reduction)", "format": "biochemical", "procedure": "[…]. This finding highlights the potential of barbituric acid derivatives as selective inhibitors of LbDHODH.\nHuman DHODH expression and purification were conducted following a protocol previously established in our laboratory. The purification was carried out by affinity chromatography on a Ni-NTA Agarose column (Qiagen[…] Cat. No. 30210). […] The reaction was performed in triplicate, initiated by adding 195 μL of reaction buffer to 5 μL of HsDHODH protein solution for a final concentration of 20 nM enzyme. As a blank, 195 μL of reaction buffer was added to 5 μL of Buffer A. The reaction was monitored at 610 nm every 3 s over 60 s. As a control, 5 μL of enzyme was added to 195 μL of reaction medium without compound. Enzymatic velocity was calculated, and the percentage of relative enzymatic activity was determined relative to the control."}, "[1]": {"test_system": "Leishmania braziliensis promastigotes", "experiment": "Leishmanicidal activity, promastigote growth (SYBR Green, 72 h)", "format": "cell-based, Leishmania (V.) braziliensis (MHOM/BR/1975/M2904)", "conditions": "Leishmania braziliensis, L. braziliensis promastigotes, max 200 μM", "procedure": "The cultures were adjusted to 4 × 10^6 parasites per mL, and 50 μL of each culture was added on a test plate with 384 wells (Corning, #CLS3658), along with the controls and compounds to be tested. Previously diluted compounds in DMSO were added to plates in decreasing concentrations, with a maximum concentration of 200 μM. Parasites were exposed to a final concentration of DMSO in various dilutes (final = 0.5%), and the culture medium was used as the control for the experiment. […] After adding the lysis buffer, the plates were incubated in the dark for 2 h with gentle shaking. The readings were done using a SpectraMax M3 reader (excitation at 485 nm and emission at 535 nm)."}, "[2]": {"experiment": "Cell viability / cytotoxicity assay (PrestoBlue, 72 h)", "format": "cell-based", "conditions": "human; THP-1 cell line, 72 h, max 200 μM; read-out: CC50", "procedure": "THP-1 cells (American Type Cell Collection, #TIB-202) were acquired in 2019 and stored frozen in liquid nitrogen. The cells were then maintained in RPMI 1640 (Thermo Fisher Scientific, #S31800–022) at 37 °C in a 5% CO2 atmosphere and routinely tested for Mycoplasma contamination by PCR using the primers 5′-[…] and 5′-[…]. To test the toxicity of compounds, 5000 cells were added to 96-well plates with a final volume of 80 μL centrifuged at 400g for 2 min and incubated with 150 ng/mL of phorbol myristate acetate (Merck, #P8139) for 48 h. The medium was replaced, and after 24 h, the compounds were added and tested at decreasing concentrations starting from 200 μM (10 μL/well). After 72 h of incubation, 10 μL of PrestoBlue Cell Viability Reagent (Thermo Fisher Scientific, #A13262) was added per well. After adding the reagent, the cells were incubated for 2 h at 37 °C in a 5% CO2 atmosphere, and fluorescence readings were performed using the SpectraMax M3 reader (excitation at 560 nm and emission at 590 nm)."}, "[3]": {"conditions": "LbDHODH remaining activity, compound 100 μM, 4-h preincubation, read-out: single dose (4 h) % activity"}, "[4]": {"conditions": "LbDHODH remaining activity, compound 100 μM, without preincubation, read-out: single dose (0 h) % activity"}, "[5]": {"conditions": "read-out: Single dose (0h) % activity"}, "[6]": {"conditions": "read-out: Single dose (4h) % activity"}}, "note": "Where two headings read alike, the source gives them in different places.", "data": [{"smiles": "O=C1NC(=O)C(Cc2ccc(-c3ccccc3)cc2)C(=O)N1", "note": "[3f, 5-([1,1′-Biphenyl]-4-ylmethyl)pyrimidine-2,4,6(1H,3H,5H)-trione]", "values": [{"measurement": "activity at 100 µM", "setting": "LbDHODH; [3]", "result": "34 ± 6", "unit": "%"}, {"measurement": "single dose (0 h) % activity", "setting": "LbDHODH; LbDHODH remaining activity, compound 100 μM, without preincubation, 100 µM", "result": "82.6 ±0.2", "unit": "%"}, {"measurement": "activity at 100 µM", "setting": "LbDHODH; [4]", "result": "83 ± 0.2", "unit": "%"}, {"measurement": "activity at 100 µM", "setting": "HsDHODH; [5]", "result": "93 ± 11", "unit": "%"}, {"measurement": "activity at 100 µM", "setting": "HsDHODH; [6]", "result": "102 ± 10", "unit": "%"}, {"measurement": "EC50", "setting": "[1]", "result": "> 200", "unit": "µM"}, {"measurement": "CC50 at 72 h", "setting": "[2]", "result": "> 200", "unit": "µM"}]}, {"smiles": "O=C1NC(=O)C(Cc2cccc(O)c2)C(=O)N1", "note": "[3g, 5-(3-Hydroxybenzyl)pyrimidine-2,4,6(1H,3H,5H)-trione]", "values": [{"measurement": "activity at 100 µM", "setting": "LbDHODH; [3]", "result": "36 ± 3", "unit": "%"}, {"measurement": "activity at 100 µM", "setting": "LbDHODH; [4]", "result": "93 ± 5", "unit": "%"}, {"measurement": "activity at 100 µM", "setting": "HsDHODH; [5]", "result": "87 ± 10", "unit": "%"}, {"measurement": "activity at 100 µM", "setting": "HsDHODH; [6]", "result": "86 ± 10", "unit": "%"}, {"measurement": "EC50", "setting": "[1]", "result": "> 200", "unit": "µM"}, {"measurement": "CC50 at 72 h", "setting": "[2]", "result": "> 200", "unit": "µM"}]}, {"smiles": "O=C1NC(=O)C(Cc2ccc(-c3ccccc3F)[nH]2)C(=O)N1", "note": "[3h, 5-((5-(2-Fluorophenyl)-1H-pyrrol-2-yl)methyl)pyrimidine-2,4,6(1H,3H,5H)-trione]", "values": [{"measurement": "IC50", "setting": "LbDHODH; IC50 0 h, without preincubation", "result": "> 100", "unit": "µM"}, {"measurement": "IC50", "setting": "LbDHODH; IC50 4 h, 4-h preincubation", "result": "> 100", "unit": "µM"}, {"measurement": "activity at 100 µM", "setting": "LbDHODH; [5]", "result": "80 ± 10", "unit": "%"}, {"measurement": "activity at 100 µM", "setting": "LbDHODH; [6]", "result": "80 ± 20", "unit": "%"}, {"measurement": "activity at 100 µM", "setting": "HsDHODH; [5]", "result": "89 ± 10", "unit": "%"}, {"measurement": "activity at 100 µM", "setting": "HsDHODH; [6]", "result": "91 ± 9", "unit": "%"}, {"measurement": "EC50", "setting": "[1]", "result": "> 200", "unit": "µM"}, {"measurement": "CC50 at 72 h", "setting": "[2]", "result": "> 200", "unit": "µM"}]}, {"smiles": "O=C1NC(=O)C(CC=Cc2ccccc2)C(=O)N1", "note": "[3i, 5-Cinnamylpyrimidine-2,4,6(1H,3H,5H)-trione]", "values": [{"measurement": "activity at 100 µM", "setting": "LbDHODH; [5]", "result": "103 ± 3", "unit": "%"}, {"measurement": "activity at 100 µM", "setting": "LbDHODH; [6]", "result": "21 ± 7", "unit": "%"}, {"measurement": "activity at 100 µM", "setting": "HsDHODH; [5]", "result": "102 ± 12", "unit": "%"}, {"measurement": "activity at 100 µM", "setting": "HsDHODH; [6]", "result": "98 ± 10", "unit": "%"}, {"measurement": "EC50", "setting": "[1]", "result": "> 200", "unit": "µM"}, {"measurement": "CC50 at 72 h", "setting": "[2]", "result": "193 ± 67", "unit": "µM"}]}, {"smiles": "O=C1NC(=O)C(CCCc2ccccc2)C(=O)N1", "note": "[3ii, 5-(3-Phenylpropyl)pyrimidine-2,4,6(1H,3H,5H)-trione]", "values": [{"measurement": "activity at 100 µM", "setting": "LbDHODH; [3]", "result": "21 ± 7", "unit": "%"}, {"measurement": "activity at 100 µM", "setting": "LbDHODH; [4]", "result": "98 ± 5", "unit": "%"}, {"measurement": "activity at 100 µM", "setting": "HsDHODH; [5]", "result": "99 ± 11", "unit": "%"}, {"measurement": "activity at 100 µM", "setting": "HsDHODH; [6]", "result": "96 ± 9", "unit": "%"}, {"measurement": "EC50", "setting": "[1]", "result": "23 ± 6", "unit": "µM"}, {"measurement": "CC50 at 72 h", "setting": "[2]", "result": "> 200", "unit": "µM"}]}]}
